# Square brackets hold non-standard residues; d marks the D form. Peptide text beside a SMILES is read from it. ξ: configuration not given here. Aoe(9ξ) = N[C@@H](CCCCCC(=O)C1CO1)C(=O)O; dPip = O=C(O)[C@H]1CCCCN1
# Test system: p21waf1
# Assay: Immunoblot detection of p21waf1 protein induction in response to trapoxin A
# Format: cell-based, human
# Settings: H1299 cells, 48 h
# Experimental: Detection of p21^waf1 and RhoB protein induction in response to trapoxin A treatment. […] Whole lysates are prepared in triple detergent lysis buffer (50 mM Tris, pH 8, 150 mM NaCl, 0.02% NaN3, 0.1% SDS, 1% Nonidet P-40, 0.5% sodium deoxycholate, 100 μg/ml phenylmethylsulfonyl fluoride, 1 μg/ml aprotinin) and proteins are separated by SDS-polyacrylamide electrophoresis, electrophoretically transferred to nitrocellulose membranes, and incubated with anti-p21^waf1 (BD Pharmingen, San Jose, Calif.) or anti-RhoB (Santa Cruz Biotechnologies, Santa Cruz Calif.). Immunoreactive proteins are visualized using ECL chemiluminescence system (Amersham Pharmacia Biotech., Piscataway, N.J.).
smiles,measurement,value
"O=C(CCCCC[C@@H]1NC(=O)[C@H]2CCCCN2C(=O)[C@H](Cc2ccccc2)NC(=O)[C@H](Cc2ccccc2)NC1=O)C1CO1 (stereo partly shown) [TPX, Trapoxin A] (cyclo(FF[dPip][Aoe(9ξ)]))",TPX-induced p21waf1 expression (Western blotting),decreased
